Assay: Concomitant use test with simvastatin in rabbits on high cholesterol food
Assay type: in vivo, Japanese white rabbits
Details: high cholesterol food for 15 days with simvastatin (0.002%) and/or Example 168 (0.2%), control group = 100%; for HDL3 cholesterol content (%): plasma HDL3 fraction; for ApoA-I content (%): plasma
Description: For the experiment, 10-week-old male Japanese white rabbits (manufactured by KITAYAMA LABES Co., Ltd.) were used. The animal was acclimated on normal food (RC-4, manufactured by Oriental Bio-Service Co.) and fasted for 24 hr and a high cholesterol food (0.25% cholesterol-added RC-4, manufactured by Oriental Bio-Service Co.) was given by 100 g/day per rabbit (preliminary feeding) for 3 days. On the next day of day 3 of preliminary feeding, blood was taken from the auricular artery before feeding, and the animals were grouped by 6 rabbits per group based on the parameters (HDL cholesterol content, total cholesterol content, triglyceride content) of plasma and body weight.
Foods were prepared (manufactured by Oriental Bio-Service Co.) by adding simvastatin (0.002%), compound (0.2%) of Example 168, or simvastatin (0.002%)+compound (0.2%) of Example 168 to a high cholesterol food, and each food was given to the grouped animals by 100 g/day per rabbit for 15 days. At 8 hr after feeding on day 15, the total blood was taken from the carotid artery under anesthesia, HDL cholesterol content, total cholesterol content and ApoA-I content in plasma were measured. The arteriosclerosis index was calculated from [(total cholesterol content-HDL cholesterol content)/HDL cholesterol content]. Furthermore, the HDL3 fraction was separated from plasma by ultracentrifugation and the cholesterol content of the fraction was measured. In Table, arteriosclerotic index, ApoA-1 content and HDL3 cholesterol content are shown based on the value of the control group as 100%.

Row | SMILES | Arteriosclerotic index (%) | HDL3 cholesterol content (%) | ApoA-I content (%)
1 | CCN(C[C@H]1CC[C@H](CC(=O)O)CC1)c1cc(C)c(C(F)(F)F)cc1CN(Cc1cc(C(F)(F)F)cc(C(F)(F)F)c1)c1nnn(C)n1 [Example 168, trans-(4-{[N-(2-{[N′-[3,5-bis(trifluoromethyl)benzyl]-N′-(2-methyl-2H-tetrazol-5-yl)amino]methyl}-5-methyl-4-trifluoromethylphenyl)-N-ethylamino]methyl}cyclohexyl)acetic acid methanesulfonate] | 82% | 141% | 114%
2 | CCC(C)(C)C(=O)O[C@H]1C[C@@H](C)C=C2C=C[C@H](C)[C@H](CC[C@@H]3C[C@@H](O)CC(=O)O3)[C@H]21 [simvastatin, reference compound] | 53% | 128% | 114%

— patent US7807701B2, “Dibenzylamine compounds and pharmaceutical use thereof” (Japan Tobacco Inc., priority 2002, dated 2010)
